Laboratory results as given in ChEMBL document CHEMBL3400063, “Novel pyrrole carboxamide inhibitors of JAK2 as potential treatment of myeloproliferative disorders” (Bioorg Med Chem, 2015).
≈ marks a conversion by molar mass, not a printed value. Calls of active or inactive are those of the source. No cut-off for these calls is given here.

Legend:
[1] = Cytotoxicity against human SET2 cells expressing JAK2 assessed as growth inhibition after 72 hrs by Cell Titre-Glo assay; type: functional, cell-based; details: SET-2, 72 h
[2] = Cytotoxicity against human DERL7 cells expressing JAK1/3 assessed as growth inhibition after 72 hrs by Cell Titre-Glo assay; type: functional, cell-based; details: DERL7, 72 h
A2780 = experiment: Cytotoxicity against human A2780 cells expressing […] assessed as growth inhibition after 72 hrs by Cell Titre-Glo assay; type: functional, cell-based; details: A2780, 72 h
[3] = target: Tyrosine-protein kinase JAK2 (Homo sapiens, UniProt O60674); experiment: Inhibition of recombinant epitope-tagged JAK2 (808 to 1132) (unknown origin) using LPLDKDYYVVREPGQ as substrate by beta-countiing analysis in presence of 33P-gamma-ATP
Chain of Tyrosine-protein kinase JAK2 (O60674 whole entry): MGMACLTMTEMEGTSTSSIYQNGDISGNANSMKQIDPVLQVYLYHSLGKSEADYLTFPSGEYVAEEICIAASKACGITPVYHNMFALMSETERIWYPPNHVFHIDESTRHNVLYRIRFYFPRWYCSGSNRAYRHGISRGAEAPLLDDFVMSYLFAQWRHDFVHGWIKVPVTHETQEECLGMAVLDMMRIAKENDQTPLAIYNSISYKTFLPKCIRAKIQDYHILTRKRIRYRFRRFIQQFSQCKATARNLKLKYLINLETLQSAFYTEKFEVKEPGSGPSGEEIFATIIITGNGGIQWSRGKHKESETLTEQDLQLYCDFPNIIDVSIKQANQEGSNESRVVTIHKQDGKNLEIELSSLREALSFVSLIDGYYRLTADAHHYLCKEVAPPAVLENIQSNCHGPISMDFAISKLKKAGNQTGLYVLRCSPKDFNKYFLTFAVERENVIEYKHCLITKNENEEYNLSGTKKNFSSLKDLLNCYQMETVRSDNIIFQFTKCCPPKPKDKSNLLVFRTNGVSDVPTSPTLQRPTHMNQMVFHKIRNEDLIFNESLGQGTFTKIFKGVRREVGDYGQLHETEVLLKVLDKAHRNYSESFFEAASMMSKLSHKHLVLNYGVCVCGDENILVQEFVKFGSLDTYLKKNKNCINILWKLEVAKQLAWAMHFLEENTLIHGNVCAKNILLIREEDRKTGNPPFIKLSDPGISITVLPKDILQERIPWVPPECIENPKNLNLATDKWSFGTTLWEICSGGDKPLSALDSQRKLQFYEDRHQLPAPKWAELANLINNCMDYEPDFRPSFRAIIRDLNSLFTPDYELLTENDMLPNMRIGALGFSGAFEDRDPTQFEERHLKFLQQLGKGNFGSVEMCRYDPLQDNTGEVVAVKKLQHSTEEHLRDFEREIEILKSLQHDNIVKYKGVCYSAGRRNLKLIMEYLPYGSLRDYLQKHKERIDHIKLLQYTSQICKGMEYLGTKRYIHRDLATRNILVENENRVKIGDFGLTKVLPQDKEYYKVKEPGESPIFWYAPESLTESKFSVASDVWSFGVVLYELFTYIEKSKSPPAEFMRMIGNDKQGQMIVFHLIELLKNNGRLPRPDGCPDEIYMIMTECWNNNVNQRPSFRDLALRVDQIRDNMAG

Homo sapiens [4] = species: Homo sapiens; experiment: Selectivity ratio of IC50 for recombinant epitope-tagged JAK1 (861 to 1152) (unknown origin) to IC50 for recombinant epitope-tagged JAK2 (808 to 1132) (unknown origin)
Homo sapiens [5] = species: Homo sapiens; experiment: Selectivity ratio of IC50 for recombinant epitope-tagged JAK3 (781 to 1124) (unknown origin) to IC50 for recombinant epitope-tagged JAK2 (808 to 1132) (unknown origin)
[6] = Solubility of the compound at pH 7; type: physicochemical; details: buffer
[7] = Cmax in Balb nu/nu mouse at 10 mg/kg, iv by LC/MS/MS analysis; type: ADME, organism-based; parameters: dose 10 mg/kg, route intravenous; details: in vivo
[8] = AUC (infinity) in Balb nu/nu mouse at 10 mg/kg, iv by LC/MS/MS analysis; type: ADME, organism-based; parameters: time infinity, dose 10 mg/kg, route intravenous; details: plasma
[9] = Clearance in Balb nu/nu mouse at 10 mg/kg, iv by LC/MS/MS analysis; type: ADME, organism-based; parameters: dose 10 mg/kg, route intravenous; details: in vivo
[10] = Volume of distribution at steady state in Balb nu/nu mouse at 10 mg/kg, iv by LC/MS/MS analysis; type: ADME, organism-based; parameters: dose 10 mg/kg, route intravenous; details: in vivo, read-out: Vdss
[11] = Half life in Balb nu/nu mouse at 10 mg/kg, iv by LC/MS/MS analysis; type: ADME, organism-based; parameters: dose 10 mg/kg, route intravenous; details: in vivo
[12] = Cmax in Balb nu/nu mouse at 10 mg/kg, po by LC/MS/MS analysis; type: ADME, organism-based; parameters: dose 10 mg/kg, route oral; details: in vivo
[13] = AUC (infinity) in Balb nu/nu mouse at 10 mg/kg, po by LC/MS/MS analysis; type: ADME, organism-based; parameters: dose 10 mg/kg, route oral, time infinity; details: plasma
[14] = Half life in Balb nu/nu mouse at 10 mg/kg, po by LC/MS/MS analysis; type: ADME, organism-based; parameters: dose 10 mg/kg, route oral; details: in vivo
[15] = Oral bioavailability in Balb nu/nu mouse at 10 mg/kg by LC/MS/MS analysis; type: ADME, organism-based; details: in vivo
[16] = target: Tyrosine-protein kinase JAK1 (Homo sapiens) (UniProt P23458); experiment: Inhibition of JAK1 in human DERL7 cells assessed as inhibition of STAT5 phosphorylation after 2 hrs by SDS-PAGE analysis in presence of human IL-2; type: cell-based
Chain of Tyrosine-protein kinase JAK1 (Homo sapiens) (P23458 whole entry): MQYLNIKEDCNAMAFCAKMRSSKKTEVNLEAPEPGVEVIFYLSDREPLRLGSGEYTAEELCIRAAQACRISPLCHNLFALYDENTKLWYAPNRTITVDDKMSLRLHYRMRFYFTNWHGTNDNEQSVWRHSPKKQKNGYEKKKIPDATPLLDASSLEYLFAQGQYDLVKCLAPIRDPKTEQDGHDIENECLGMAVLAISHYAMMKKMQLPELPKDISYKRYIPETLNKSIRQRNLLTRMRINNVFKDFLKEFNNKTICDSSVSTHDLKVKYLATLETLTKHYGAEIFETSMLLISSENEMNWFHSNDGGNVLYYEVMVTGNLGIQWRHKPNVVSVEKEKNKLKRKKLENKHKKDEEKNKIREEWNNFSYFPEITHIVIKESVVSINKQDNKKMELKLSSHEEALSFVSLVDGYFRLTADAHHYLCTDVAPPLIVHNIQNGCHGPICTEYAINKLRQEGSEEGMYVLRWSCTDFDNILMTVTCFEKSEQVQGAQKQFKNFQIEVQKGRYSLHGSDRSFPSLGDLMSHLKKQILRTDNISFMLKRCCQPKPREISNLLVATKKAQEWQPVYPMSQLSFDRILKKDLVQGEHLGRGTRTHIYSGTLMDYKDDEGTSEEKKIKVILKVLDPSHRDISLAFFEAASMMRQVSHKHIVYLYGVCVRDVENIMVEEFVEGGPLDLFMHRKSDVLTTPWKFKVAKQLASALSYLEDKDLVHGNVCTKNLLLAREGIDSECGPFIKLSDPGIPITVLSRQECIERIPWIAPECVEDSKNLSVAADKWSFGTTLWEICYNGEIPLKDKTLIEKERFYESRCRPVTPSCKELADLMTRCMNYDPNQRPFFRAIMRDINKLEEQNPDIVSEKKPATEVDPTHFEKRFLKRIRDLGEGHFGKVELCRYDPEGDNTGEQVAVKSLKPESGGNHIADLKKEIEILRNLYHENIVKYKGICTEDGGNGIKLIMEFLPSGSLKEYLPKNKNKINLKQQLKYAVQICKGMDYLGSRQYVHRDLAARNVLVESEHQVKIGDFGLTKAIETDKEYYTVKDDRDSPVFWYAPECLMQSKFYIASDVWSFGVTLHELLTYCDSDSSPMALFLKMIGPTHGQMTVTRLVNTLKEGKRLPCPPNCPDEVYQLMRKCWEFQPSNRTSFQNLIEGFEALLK

[17] = target: T1, Tyrosine-protein kinase JAK3 (Homo sapiens) (UniProt P52333); experiment: Inhibition of JAK3 in human DERL7 cells assessed as inhibition of STAT5 phosphorylation after 2 hrs by SDS-PAGE analysis in presence of human IL-2; type: cell-based
T1 sequence (whole entry): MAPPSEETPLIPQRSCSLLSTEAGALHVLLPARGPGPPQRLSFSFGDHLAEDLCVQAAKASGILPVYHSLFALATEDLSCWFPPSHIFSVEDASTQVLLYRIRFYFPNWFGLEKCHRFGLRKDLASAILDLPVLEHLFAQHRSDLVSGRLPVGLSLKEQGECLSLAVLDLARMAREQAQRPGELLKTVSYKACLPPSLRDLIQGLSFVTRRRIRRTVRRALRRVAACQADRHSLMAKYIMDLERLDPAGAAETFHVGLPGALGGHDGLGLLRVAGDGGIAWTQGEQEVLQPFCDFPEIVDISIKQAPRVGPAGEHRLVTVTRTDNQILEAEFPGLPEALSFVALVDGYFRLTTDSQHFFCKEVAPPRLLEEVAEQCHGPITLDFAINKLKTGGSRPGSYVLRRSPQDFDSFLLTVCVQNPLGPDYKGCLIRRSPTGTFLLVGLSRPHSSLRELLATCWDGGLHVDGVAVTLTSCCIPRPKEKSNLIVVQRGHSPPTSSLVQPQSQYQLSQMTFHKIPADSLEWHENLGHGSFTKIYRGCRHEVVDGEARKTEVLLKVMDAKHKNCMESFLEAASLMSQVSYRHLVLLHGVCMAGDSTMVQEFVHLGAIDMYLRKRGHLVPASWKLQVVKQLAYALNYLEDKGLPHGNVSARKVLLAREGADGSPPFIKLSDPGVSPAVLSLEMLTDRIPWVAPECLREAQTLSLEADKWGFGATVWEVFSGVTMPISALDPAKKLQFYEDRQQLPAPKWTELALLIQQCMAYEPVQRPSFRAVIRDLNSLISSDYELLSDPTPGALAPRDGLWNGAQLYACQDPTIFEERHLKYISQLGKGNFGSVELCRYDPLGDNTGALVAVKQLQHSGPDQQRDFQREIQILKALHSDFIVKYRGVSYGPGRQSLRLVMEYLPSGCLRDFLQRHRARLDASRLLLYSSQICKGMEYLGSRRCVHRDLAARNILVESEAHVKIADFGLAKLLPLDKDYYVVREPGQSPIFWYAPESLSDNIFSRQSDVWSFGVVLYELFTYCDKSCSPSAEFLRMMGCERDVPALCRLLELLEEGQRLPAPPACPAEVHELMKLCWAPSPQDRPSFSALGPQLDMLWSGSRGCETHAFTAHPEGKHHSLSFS

[18] = Antitumor activity against human SET2 cells xenografted in SCID mouse assessed as tumor growth inhibition at 50 mg/kg, po bid for 10 days relative to control; type: functional; details: SET-2, 240 h, read-out: TGI
Mus musculus [19] = experiment: Toxicity in SCID mouse xenografted with human SET2 cells assessed as body weight loss at 50 mg/kg, po bid for 10 days; type: organism-based; parameters: dose 50 mg/kg, route oral; details: in vivo, 240 h
Mus musculus [20] = experiment: In vivo inhibition of JAK2 in SCID mouse xenografted with human SET2 cells assessed as inhibition of STAT5 phosphorylation at 50 mg/kg, po up to 6 hrs; type: functional, organism-based; parameters: dose 50 mg/kg
Mus musculus [21] = experiment: In vivo inhibition of JAK2 in SCID mouse xenografted with human SET2 cells assessed as inhibition of STAT5 phosphorylation at 50 mg/kg, po after 3 hrs; type: functional, organism-based; parameters: dose 50 mg/kg
Mus musculus [22] = experiment: In vivo inhibition of JAK2 in SCID mouse xenografted with human SET2 cells assessed as total STAT5 level at 50 mg/kg, po up to 6 hrs; type: functional, organism-based; parameters: dose 50 mg/kg
Mus musculus [23] = experiment: In vivo inhibition of JAK2 in SCID mouse xenografted with human SET2 cells assessed as total STAT5 level at 50 mg/kg, po after 3 hrs; type: functional, organism-based; parameters: dose 50 mg/kg

NC(=O)c1cc(-c2cc(N)ncn2)cn1-c1cc(C(F)(F)F)ccc1Cl
IC50 [1]: 1570 nM

CCc1ccc(Cl)cc1-n1cc(-c2ncnc3[nH]ccc23)cc1C(N)=O
IC50 [1]: 30 nM | IC50 [2]: 20 nM | IC50 (A2780): > 5000 nM

Cc1ccc(Cl)cc1-c1cc(-c2cc(N)ncn2)[nH]c1C(N)=O
IC50 [3]: 690 nM

CCc1ccc(Cl)cc1-c1cc(-c2ncnc3[nH]ccc23)[nH]c1C(N)=O
IC50 [3]: 3 nM | Ratio IC50 (Homo sapiens [4]): 6 | Ratio IC50 (Homo sapiens [5]): 7 | IC50 [1]: 320 nM | IC50 [2]: 1100 nM | IC50 (A2780): 1600 nM

CNc1cc(-c2cc(C(N)=O)n(-c3cc(C(F)(F)F)ccc3Cl)c2)ncn1
IC50 [3]: 331 nM

NC(=O)c1cc(-c2ncnc3[nH]ccc23)cn1-c1cc(C(F)(F)F)ccc1Cl
Ratio IC50 (Homo sapiens [4]): 4 | Ratio IC50 (Homo sapiens [5]): 4 | IC50 [1]: 60 nM | IC50 [2]: 150 nM | IC50 (A2780): > 10000 nM

CNc1cc(-n2cc(C(N)=O)c(-c3cc(Cl)ccc3C)c2)ncn1
IC50 [3]: 620 nM

CCc1ccc(Cl)cc1-n1cc(-c2cc(NC)ncn2)cc1C(N)=O
Ratio IC50 (Homo sapiens [4]): 9 | Ratio IC50 (Homo sapiens [5]): 11 | IC50 [1]: 500 nM | IC50 [2]: 1720 nM | IC50 (A2780): > 10000 nM | solubility [6]: 111 µM (≈ 39.5 µg/mL) | Cmax [7]: 32 µM | AUC(0-inf) [8]: 37.4 µM·h | clearance [9]: 12 mL/min/kg | Vd [10]: 1.4 L/kg | half-life [11]: 5.4 h | Cmax [12]: 1.6 µM | AUC(0-inf) [13]: 2.9 µM·h | half-life [14]: 2.4 h | bioavailability [15]: 9%

Cc1ccc(Cl)cc1-c1ncc(-c2ccnc(N)n2)[nH]1
IC50 [3]: 1070 nM

Cc1ccc(Cl)cc1-n1nc(-c2ccnc(N)n2)cc1C(N)=O
IC50 [3]: > 10000 nM

CNc1cc(-c2cc(C(N)=O)n(-c3cc(Cl)ccc3C)c2)ncn1
IC50 [3]: 131 nM

CCc1ccc(Cl)cc1-n1cc(-c2ncnn3cccc23)cc1C(N)=O
Ratio IC50 (Homo sapiens [4]): 7 | Ratio IC50 (Homo sapiens [5]): 15 | IC50 [1]: 660 nM | IC50 [2]: 2140 nM | IC50 (A2780): > 10000 nM | solubility [6]: 25 µM (≈ 9.15 µg/mL) | Cmax [7]: 12.4 µM | AUC(0-inf) [8]: 8.4 µM·h | clearance [9]: 51 mL/min/kg | Vd [10]: 5.8 L/kg | half-life [11]: 5.5 h | Cmax [12]: 0.04 µM | AUC(0-inf) [13]: 0.07 µM·h | half-life [14]: 3.7 h | bioavailability [15]: 1%

Cc1ccc(Cl)cc1-c1cn(-c2ncnc3[nH]ccc23)cc1C(N)=O
IC50 [3]: 16 nM | Ratio IC50 (Homo sapiens [4]): 5 | Ratio IC50 (Homo sapiens [5]): 14 | IC50 [1]: 500 nM | IC50 [2]: > 10000 nM | IC50 (A2780): > 10000 nM | solubility [6]: 2 µM (≈ 0.704 µg/mL)

Cc1ccc(Cl)cc1-c1[nH]c(-c2ccnc(N)n2)cc1C(N)=O
IC50 [1]: 430 nM | IC50 [2]: 740 nM

Cc1ccc(Cl)cc1-n1cc(-c2ccnc(N)n2)cn1
IC50 [3]: 950 nM

Cc1ccc(Cl)cc1-n1cc(-c2ncnc3[nH]ccc23)cc1C(N)=O
Ratio IC50 (Homo sapiens [4]): 3 | Ratio IC50 (Homo sapiens [5]): 5 | IC50 [1]: 80 nM | IC50 [2]: 460 nM | IC50 (A2780): 7400 nM | solubility [6]: 40 µM (≈ 14.1 µg/mL) | Cmax [7]: 51 µM | AUC(0-inf) [8]: 26.2 µM·h | clearance [9]: 17 mL/min/kg | Vd [10]: 0.7 L/kg | half-life [11]: 5 h | Cmax [12]: 0.69 µM | AUC(0-inf) [13]: 1.6 µM·h | half-life [14]: 3 h | bioavailability [15]: 8%

Cc1ccc(Cl)cc1-c1cn(-c2ncnn3cccc23)cc1C(N)=O
IC50 [3]: 2910 nM

Cc1ccc(Cl)cc1-c1cn(-c2cc(N)ncn2)cc1C(N)=O
IC50 [3]: 369 nM

Cc1ccc(Cl)cc1-n1cc(-c2ccnc(N)n2)cc1C(N)=O
IC50 [3]: 216 nM

Cc1ccc(Cl)cc1-c1cn(-c2ccnc(N)n2)cc1C(N)=O
IC50 [3]: 220 nM

CCc1ccc(Cl)cc1-n1cc(-c2cc(N)ncn2)cc1C(N)=O
IC50 [2]: 2730 nM | solubility [6]: 128 µM (≈ 43.8 µg/mL) | Cmax [7]: 45.9 µM | AUC(0-inf) [8]: 49.2 µM·h | clearance [9]: 8.3 mL/min/kg | Vd [10]: 0.6 L/kg | half-life [11]: 2 h | Cmax [12]: 12.5 µM | AUC(0-inf) [13]: 21 µM·h | half-life [14]: 2.6 h | bioavailability [15]: 50% | inhibition [16]: Active | inhibition [17]: Active | inhibition in vivo at 50 mg/kg [18]: 41% | Activity (Mus musculus [19]): Non-toxic | inhibition (Mus musculus [20]): Active | inhibition (Mus musculus [21]): Active | inhibition (Mus musculus [22]): inactive | inhibition (Mus musculus [23]): inactive

Cc1ccc(Cl)cc1-c1cc(-c2ncnc3[nH]ccc23)[nH]c1C(N)=O
IC50 [3]: 9 nM | Ratio IC50 (Homo sapiens [4]): 5 | Ratio IC50 (Homo sapiens [5]): 6 | IC50 [1]: 460 nM | IC50 [2]: 7300 nM | IC50 (A2780): 9400 nM | solubility [6]: 3 µM (≈ 1.06 µg/mL)

Cc1ccc(Cl)cc1-c1ccc(-c2ccnc(N)n2)[nH]1
IC50 [3]: 972 nM

Cc1ccc(Cl)cc1-n1cc(-c2ncnn3cccc23)cc1C(N)=O
IC50 [1]: 1920 nM
